Reference: patent publication US8569292B2, “Cyclic inhibitors of 11β-hydroxysteroid dehydrogenase 1” (Vitae Pharmaceuticals, Inc., priority 2008, dated 2013)

What was measured:
11β-HSD1 [1] = molecular target: T1, 11β-HSD1 (Homo sapiens, UniProt P28845); assay: biochemical; details: for inhibition at 0.1 µM: read-out: Average % inhibition at 100 nM
11β-HSD1 [2] = molecular target: T1, 11β-HSD1; assay: Biological Test Example 4: microsomal 11β-HSD1 in the presence of 50% human plasma; details: for Shift: IC50 in Test Example 4 divided by IC50 in Test Example 1
CYP2C9 [3] = molecular target: T2, CYP2C9 (Homo sapiens, UniProt P11712); assay: Biological Test Example 7: CYP2C9 inhibition (naproxen O-demethylation); assay type: in vitro ADME
T2 construct: purchased Invitrogen 2859; host or cells: insect cells infected with baculovirus (microsomes)
T2 sequence (P11712 whole entry): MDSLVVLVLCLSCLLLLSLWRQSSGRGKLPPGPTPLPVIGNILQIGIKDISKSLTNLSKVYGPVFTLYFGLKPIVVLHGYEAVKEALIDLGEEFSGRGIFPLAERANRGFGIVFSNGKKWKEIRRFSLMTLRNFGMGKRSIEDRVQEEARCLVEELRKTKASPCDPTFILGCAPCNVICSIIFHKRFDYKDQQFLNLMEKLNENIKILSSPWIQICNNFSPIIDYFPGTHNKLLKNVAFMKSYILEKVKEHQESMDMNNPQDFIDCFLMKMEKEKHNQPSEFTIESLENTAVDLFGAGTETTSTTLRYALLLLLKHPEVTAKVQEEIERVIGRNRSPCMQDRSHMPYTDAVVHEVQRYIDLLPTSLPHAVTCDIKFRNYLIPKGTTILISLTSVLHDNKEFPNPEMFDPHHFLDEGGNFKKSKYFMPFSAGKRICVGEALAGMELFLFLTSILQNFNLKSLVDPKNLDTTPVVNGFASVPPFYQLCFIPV

CYP3A4 = CYP3A4 (Homo sapiens, UniProt P08684); assay: Biological Test Example 6: CYP3A4 inhibition (erythromycin N-demethylation); assay type: in vitro ADME
CYP3A4, sequence (P08684 whole entry): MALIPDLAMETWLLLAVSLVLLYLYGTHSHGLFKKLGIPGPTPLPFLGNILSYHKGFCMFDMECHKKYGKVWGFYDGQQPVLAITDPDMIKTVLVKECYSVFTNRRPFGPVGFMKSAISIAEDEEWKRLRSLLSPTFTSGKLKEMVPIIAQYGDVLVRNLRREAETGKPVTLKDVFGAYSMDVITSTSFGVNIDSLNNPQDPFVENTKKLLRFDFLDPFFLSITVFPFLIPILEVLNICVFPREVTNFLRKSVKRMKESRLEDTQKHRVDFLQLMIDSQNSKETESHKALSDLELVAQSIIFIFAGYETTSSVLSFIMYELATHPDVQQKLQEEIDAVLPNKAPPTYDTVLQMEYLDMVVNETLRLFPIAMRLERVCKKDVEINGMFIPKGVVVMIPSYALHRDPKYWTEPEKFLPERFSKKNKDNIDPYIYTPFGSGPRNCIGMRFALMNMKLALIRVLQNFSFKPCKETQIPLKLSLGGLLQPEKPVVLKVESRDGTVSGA

CYP2C9 [4] = molecular target: T2, CYP2C9; assay: Biological Test Example 9: CYP2C9 inhibition (Invitrogen kit, fluorogenic OOMR); assay type: in vitro ADME
[5] = Biological Test Example 1 IC50 (nM)
[6] = IC50 Range, Biological Test Example 1

T1 sequence (P28845 whole entry): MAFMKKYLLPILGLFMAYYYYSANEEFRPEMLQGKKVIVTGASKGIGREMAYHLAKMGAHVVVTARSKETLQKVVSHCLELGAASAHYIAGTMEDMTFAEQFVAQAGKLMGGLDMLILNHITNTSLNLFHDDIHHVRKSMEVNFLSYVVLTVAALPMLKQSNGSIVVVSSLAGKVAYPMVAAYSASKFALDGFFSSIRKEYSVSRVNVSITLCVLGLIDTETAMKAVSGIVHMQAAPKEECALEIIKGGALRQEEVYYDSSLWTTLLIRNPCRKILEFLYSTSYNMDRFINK

Cc1nc(-c2ccc([C@H](C)N3CC[C@](CC(C)(C)O)(c4ccccc4)OC3=O)cc2)ccc1C#N [EXAMPLE 1, 6-(4-((S)-1-((S)-6-(2-hydroxy-2-methylpropyl)-2-oxo-6-phenyl-1,3-oxazinan-3-yl)ethyl)phenyl)-2-methylnicotinonitrile]
IC50 (11β-HSD1 [1]; [5]): 0.7 nM
IC50 (11β-HSD1 [1]; [6]): < 100 nM
inhibition at 0.1 µM (11β-HSD1 [1]): 96.4%
IC50 (11β-HSD1 [2]): 7.3 nM
IC50 (CYP2C9 [3]): 12900 nM
IC50 (CYP3A4): 16700 nM

Cc1ccc(-c2ccc([C@H](C)N3CC[C@](CCc4nnc(C)o4)(c4ccccc4)OC3=O)cc2)nn1 [EXAMPLE 12, (R)-6-(2-(5-methyl-1,3,4-oxadiazol-2-yl)ethyl)-3-((S)-1-(4-(6-methylpyridazin-3-yl)phenyl)ethyl)-6-phenyl-1,3-oxazinan-2-one]
IC50 (CYP2C9 [4]): 4000 nM

C[C@@H](c1ccc(-c2cccnc2)cc1)N1CC[C@](CCO)(c2ccccc2)OC1=O [EXAMPLE 34, (S)-6-(2-hydroxyethyl)-6-phenyl-3-((S)-1-(4-(pyridin-3-yl)phenyl)ethyl)-1,3-oxazinan-2-one]
IC50 (CYP2C9 [4]): 5100 nM

Cc1cc(-c2ccc([C@H](C)N3CC[C@](CCC(N)=O)(c4ccc(F)cc4)OC3=O)cc2)ccn1 [EXAMPLE 78, 3-((R)-6-(4-fluorophenyl)-3-((S)-1-(4-(2-methylpyridin-4-yl)phenyl)ethyl)-2-oxo-1,3-oxazinan-6-yl)propanamide]
IC50 (11β-HSD1 [1]; [5]): 1.8 nM
IC50 (11β-HSD1 [1]; [6]): < 100 nM
inhibition at 0.1 µM (11β-HSD1 [1]): 95.8%
IC50 (11β-HSD1 [2]): 19.8 nM
IC50 (CYP3A4): 7300 nM

Cc1cc(-c2ccc([C@H](C)N3CC[C@](CCC(N)=O)(c4ccccc4)OC3=O)cc2)ccn1 [EXAMPLE 98, 3-((R)-3-((S)-1-(4-(2-methylpyridin-4-yl)phenyl)ethyl)-2-oxo-6-phenyl-1,3-oxazinan-6-yl)propanamide]
IC50 (11β-HSD1 [1]; [5]): 1.4 nM
IC50 (11β-HSD1 [1]; [6]): < 100 nM
inhibition at 0.1 µM (11β-HSD1 [1]): 97.8%
IC50 (11β-HSD1 [2]): 6.3 nM
IC50 (CYP3A4): 42200 nM

C[C@@H](c1ccc(-c2ccc(C(F)(F)F)cn2)cc1)N1CC[C@](CCCO)(c2ccc(F)cc2)OC1=O [EXAMPLE 109, (R)-6-(4-fluorophenyl)-6-(3-hydroxypropyl)-3-((S)-1-(4-(5-(trifluoromethyl)pyridin-2-yl)phenyl)ethyl)-1,3-oxazinan-2-one]
IC50 (11β-HSD1 [1]; [5]): 2.9 nM
IC50 (11β-HSD1 [1]; [6]): < 100 nM
inhibition at 0.1 µM (11β-HSD1 [1]): 91.5%
IC50 (11β-HSD1 [2]): 31.9 nM
Shift (11β-HSD1 [2]): 11.0

C[C@@H](c1ccc(-c2ccc(C#N)cn2)cc1)N1CC[C@](CCCO)(c2ccccc2)OC1=O [EXAMPLE 110, 6-(4-((S)-1-((R)-6-(3-hydroxypropyl)-2-oxo-6-phenyl-1,3-oxazinan-3-yl)ethyl)phenyl)nicotinonitrile]
IC50 (11β-HSD1 [1]; [5]): 0.5 nM
IC50 (11β-HSD1 [1]; [6]): < 100 nM
inhibition at 0.1 µM (11β-HSD1 [1]): 93.9%
IC50 (11β-HSD1 [2]): 3.7 nM
Shift (11β-HSD1 [2]): 7.7

Cc1ccc(-c2ccc([C@H](C)N3CC[C@](CCCO)(c4ccc(F)cc4)OC3=O)cc2)nn1 [EXAMPLE 114, (R)-6-(4-fluorophenyl)-6-(3-hydroxypropyl)-3-((S)-1-(4-(6-methylpyridazin-3-yl)phenyl)ethyl)-1,3-oxazinan-2-one]
IC50 (11β-HSD1 [1]; [5]): 0.9 nM
IC50 (11β-HSD1 [1]; [6]): < 100 nM
inhibition at 0.1 µM (11β-HSD1 [1]): 98.9%
IC50 (11β-HSD1 [2]): 3.9 nM
Shift (11β-HSD1 [2]): 4.5

Cc1cc(-c2ccc([C@H](C)N3CC[C@](CCN(C)S(C)(=O)=O)(c4ccccc4)OC3=O)cc2)ccn1 [EXAMPLE 117, N-methyl-N-(2-((S)-3-((S)-1-(4-(2-methylpyridin-4-yl)phenyl)ethyl)-2-oxo-6-phenyl-1,3-oxazinan-6-yl)ethyl)methanesulfonamide]
IC50 (11β-HSD1 [1]; [5]): 1.7 nM
IC50 (11β-HSD1 [1]; [6]): < 100 nM
inhibition at 0.1 µM (11β-HSD1 [1]): 93.9%
IC50 (11β-HSD1 [2]): 12.1 nM
Shift (11β-HSD1 [2]): 7.3

Cc1cc(-c2ccc([C@H](C)N3CC[C@](CCCN(C)S(C)(=O)=O)(c4ccccc4)OC3=O)cc2)ccn1 [EXAMPLE 119, N-methyl-N-(3-((R)-3-((S)-1-(4-(2-methylpyridin-4-yl)phenyl)ethyl)-2-oxo-6-phenyl-1,3-oxazinan-6-yl)propyl)methanesulfonamide]
IC50 (11β-HSD1 [1]; [5]): 2 nM
IC50 (11β-HSD1 [1]; [6]): < 100 nM
inhibition at 0.1 µM (11β-HSD1 [1]): 90.8%
IC50 (11β-HSD1 [2]): 29.7 nM
Shift (11β-HSD1 [2]): 15.1

Cc1cc(-c2ccc([C@H](C)N3CC[C@](CCCO)(c4ccc(F)cc4)OC3=O)cc2)cc(C)[n+]1[O-] [EXAMPLE 122, 4-(4-((S)-1-((R)-6-(4-fluorophenyl)-6-(3-hydroxypropyl)-2-oxo-1,3-oxazinan-3-yl)ethyl)phenyl)-2,6-dimethylpyridine 1-oxide]
IC50 (11β-HSD1 [1]; [5]): 2.5 nM
IC50 (11β-HSD1 [1]; [6]): < 100 nM
inhibition at 0.1 µM (11β-HSD1 [1]): 94.5%
IC50 (11β-HSD1 [2]): 6.5 nM
Shift (11β-HSD1 [2]): 2.6

Cc1cc(-c2ccc([C@H](C)N3CC[C@](CC(C)(C)O)(c4ccc(F)cc4)OC3=O)cc2)cc[n+]1[O-] [EXAMPLE 124, 4-(4-((S)-1-((S)-6-(4-fluorophenyl)-6-(2-hydroxy-2-methylpropyl)-2-oxo-1,3-oxazinan-3-yl)ethyl)phenyl)-2-methylpyridine 1-oxide]
IC50 (11β-HSD1 [1]; [5]): 5.6 nM
IC50 (11β-HSD1 [1]; [6]): < 100 nM
inhibition at 0.1 µM (11β-HSD1 [1]): 88.1%
IC50 (11β-HSD1 [2]): 14.5 nM
Shift (11β-HSD1 [2]): 2.6

Cc1nccc(-c2ccc([C@H](C)N3CC[C@](CCCO)(c4ccc(F)cc4)OC3=O)cc2)n1 [EXAMPLE 126, (R)-6-(4-fluorophenyl)-6-(3-hydroxypropyl)-3-((S)-1-(4-(2-methylpyrimidin-4-yl)phenyl)ethyl)-1,3-oxazinan-2-one]
IC50 (11β-HSD1 [1]; [5]): 1.5 nM
IC50 (11β-HSD1 [1]; [6]): < 100 nM
inhibition at 0.1 µM (11β-HSD1 [1]): 96.7%
IC50 (11β-HSD1 [2]): 13.3 nM
Shift (11β-HSD1 [2]): 8.7

Cc1nccc(-c2ccc([C@H](C)N3CC[C@](CC(C)(C)C#N)(c4ccc(F)cc4)OC3=O)cc2)n1 [EXAMPLE 142, 3-((R)-6-(4-fluorophenyl)-3-((S)-1-(4-(2-methylpyrimidin-4-yl)phenyl)ethyl)-2-oxo-1,3-oxazinan-6-yl)-2,2-dimethylpropanenitrile]
IC50 (11β-HSD1 [1]; [5]): 2.6 nM
IC50 (11β-HSD1 [1]; [6]): < 100 nM
inhibition at 0.1 µM (11β-HSD1 [1]): 96.4%
IC50 (11β-HSD1 [2]): 8.1 nM
Shift (11β-HSD1 [2]): 3.1

C[C@@H](c1ccc(-c2cnc(C#N)cn2)cc1)N1CC[C@](CC(C)(C)O)(c2ccc(F)cc2)OC1=O [EXAMPLE 153, 5-(4-((S)-1-((S)-6-(4-fluorophenyl)-6-(2-hydroxy-2-methylpropyl)-2-oxo-1,3-oxazinan-3-yl)ethyl)phenyl)pyrazine-2-carbonitrile]
IC50 (11β-HSD1 [1]; [5]): 1.7 nM
IC50 (11β-HSD1 [1]; [6]): < 100 nM
inhibition at 0.1 µM (11β-HSD1 [1]): 94.7%
IC50 (11β-HSD1 [2]): 9.2 nM
Shift (11β-HSD1 [2]): 5.4

CC[C@@H](c1ccc(-c2cc(C)[n+]([O-])c(C)c2)cc1)N1CC[C@](CC(C)(C)O)(c2ccccc2)OC1=O [EXAMPLE 154, 4-(4-((S)-1-((S)-6-(2-hydroxy-2-methylpropyl)-2-oxo-6-phenyl-1,3-oxazinan-3-yl)propyl)phenyl)-2,6-dimethylpyridine 1-oxide]
IC50 (11β-HSD1 [1]; [5]): 3.5 nM
IC50 (11β-HSD1 [1]; [6]): < 100 nM
inhibition at 0.1 µM (11β-HSD1 [1]): 90.7%
IC50 (11β-HSD1 [2]): 13.2 nM
Shift (11β-HSD1 [2]): 3.8

C[C@@H](c1ccc(-c2cncc(C#N)n2)cc1)N1CC[C@](CC(C)(C)O)(c2ccc(F)cc2)OC1=O [EXAMPLE 157, 6-(4-((S)-1-((S)-6-(4-fluorophenyl)-6-(2-hydroxy-2-methylpropyl)-2-oxo-1,3-oxazinan-3-yl)ethyl)phenyl)pyrazine-2-carbonitrile]
IC50 (11β-HSD1 [1]; [5]): 2.9 nM
IC50 (11β-HSD1 [1]; [6]): < 100 nM
inhibition at 0.1 µM (11β-HSD1 [1]): 96.3%
IC50 (11β-HSD1 [2]): 27.4 nM
Shift (11β-HSD1 [2]): 9.6

C[C@@H](c1ccc(-c2cncc(C(N)=O)n2)cc1)N1CC[C@](CC(C)(C)O)(c2ccc(F)cc2)OC1=O [EXAMPLE 159, 6-(4-{1-[6-(4-Fluoro-phenyl)-6-(2-hydroxy-2-methyl-propyl)-2-oxo-[1,3]oxazinan-3-yl]-ethyl}-phenyl)-pyrazine-2-carboxylic acid amide]
IC50 (11β-HSD1 [1]; [5]): 3.3 nM
IC50 (11β-HSD1 [1]; [6]): < 100 nM
inhibition at 0.1 µM (11β-HSD1 [1]): 94.6%
IC50 (11β-HSD1 [2]): 7.3 nM
Shift (11β-HSD1 [2]): 2.2

CCOc1cc(-c2ccc([C@H](C)N3CC[C@](CC(C)(C)O)(c4ccccc4)OC3=O)cc2)cc(C)n1 [EXAMPLE 162, (S)-3-((S)-1-(4-(2-ethoxy-6-methylpyridin-4-yl)phenyl)ethyl)-6-(2-hydroxy-2-methylpropyl)-6-phenyl-1,3-oxazinan-2-one]
IC50 (11β-HSD1 [1]; [5]): 1.4 nM
IC50 (11β-HSD1 [1]; [6]): < 100 nM
inhibition at 0.1 µM (11β-HSD1 [1]): 87.2%
IC50 (11β-HSD1 [2]): 31.7 nM
Shift (11β-HSD1 [2]): 21.9

C[C@@H](c1ccc(-c2cc(C#N)ccn2)cc1)N1CC[C@](CC(C)(C)O)(c2ccccc2)OC1=O [EXAMPLE 164, 2-(4-((S)-1-((S)-6-(2-hydroxy-2-methylpropyl)-2-oxo-6-phenyl-1,3-oxazinan-3-yl)ethyl)phenyl)isonicotinonitrile]
IC50 (11β-HSD1 [1]; [5]): 1.2 nM
IC50 (11β-HSD1 [1]; [6]): < 100 nM
inhibition at 0.1 µM (11β-HSD1 [1]): 99.4%
IC50 (11β-HSD1 [2]): 22.2 nM
Shift (11β-HSD1 [2]): 18.2

C[C@@H](c1ccc(-c2ncccc2C#N)cc1)N1CC[C@](CC(C)(C)O)(c2ccccc2)OC1=O [EXAMPLE 165, 2-(4-((S)-1-((S)-6-(2-hydroxy-2-methylpropyl)-2-oxo-6-phenyl-1,3-oxazinan-3-yl)ethyl)phenyl)nicotinonitrile]
IC50 (11β-HSD1 [1]; [5]): 2.4 nM
IC50 (11β-HSD1 [1]; [6]): < 100 nM
inhibition at 0.1 µM (11β-HSD1 [1]): 94.5%
IC50 (11β-HSD1 [2]): 42.5 nM

C[C@@H](c1ccc(-c2cccnc2)cc1)N1CC[C@](CCCO)(c2ccc(F)cc2)OC1=O [EXAMPLE 197, (R)-6-(4-fluorophenyl)-6-(3-hydroxypropyl)-3-((S)-1-(4-(pyridin-3-yl)phenyl)ethyl)-1,3-oxazinan-2-one]
IC50 (11β-HSD1 [1]; [5]): 1.1 nM
IC50 (11β-HSD1 [1]; [6]): < 100 nM
inhibition at 0.1 µM (11β-HSD1 [1]): 96.5%
IC50 (11β-HSD1 [2]): 5.7 nM

C[C@@H](c1ccc(-c2ccc(OCCF)nc2)cc1)N1CC[C@](CC(C)(C)O)(c2ccccc2)OC1=O [EXAMPLE 200, (S)-3-((S)-1-(4-(6-(2-fluoroethoxy)pyridin-3-yl)phenyl)ethyl)-6-(2-hydroxy-2-methylpropyl)-6-phenyl-1,3-oxazinan-2-one]
IC50 (11β-HSD1 [1]; [5]): 0.96 nM
IC50 (11β-HSD1 [1]; [6]): < 100 nM
inhibition at 0.1 µM (11β-HSD1 [1]): 98.3%
IC50 (11β-HSD1 [2]): 18.3 nM
Shift (11β-HSD1 [2]): 19.1
